{
  "source": "patent US12104173B2",
  "about": "“Method for differentiation of human pluripotent stem cell lines in suspension culture” (AGENCY FOR SCIENCE, TECHNOLOGY AND RESEARCH, priority 2018, dated 2024)",
  "assay_type_in_all_cases": "cell-based, human",
  "key": {"D11 O-neg hiPSC line": {"test_system": "D11 O-neg hiPSC line", "assay": "CHIR dose: hematopoietic/erythroid differentiation of agitated hPSC-MC aggregates", "experimental": "(§1) Human pluripotent stem cell-microcarrier (HPSC-MC) aggregates generated from different hPSC lines were differentiated using 3 different CHIR doses (5, 10 and 15 μM for 24 hours) and were evaluated for T-bra (day 2) and KDR+PDGFRβ− (day 4) expression by flow cytometry, induction of key hematopoietic transcription factors by RT-PCR (day 4), hematopoietic precursor expansion (day 14) and erythroblast expansion (day 42).\n(§2) Table 2—Hematopoietic differentiation of nine human pluripotent stem cell (hPSC) lines, from expansion in agitated microcarrier culture to erythroblast expansion—This table summarises the different stages of differentiation; hPSC expansion, mesoderm induction, hematopoietic precursor and erythroblast expansion of multiple hPSC-MC aggregate lines differentiated with optimal dose of CHIR-99021. Fold-expansion of hPSC-MC aggregates following 7 days of agitated culture, hematopoietic precursors following 14 days of culture in methylcellulose medium and erythroblast expansion following 24 days in expansion medium are reported. Flow cytometric evaluation of % T-bra+ cells on day 2 and % KDR+ cells on day 4 during mesoderm induction, % CD43+ cells during hematopoietic precursor expansion, % CD235a+ cells and fetal hemoglobin expression during erythroblast expansion stage are summarised. Total erythroid cells per hPSC seeded on day 42 was calculated as number of embryoid bodies derived on day 4 per hPSC seeded*erythroblast fold expansion*percent CD235a+ erythroblast.\n(§3) Analysis of Design of experiments (DoE) outcomes and evaluation of selected conditions generated by the MODDE® software allowed the development of an optimized protocol for hematopoietic mesoderm induction of human pluripotent stem cell-microcarrier (hPSC-MC) aggregates initially expanded under continuous agitation. Approximately 2 to 4 million hPSC-MC aggregates in 3 ml of Stemline® II medium were differentiated as follows: day 1; 30 ng/ml of BMP4, 50 ng/ml VEGF165, 12 μM CHIR-99021 (Selleck Chemicals, USA), 50 ng/ml Activin A, day 2; 30 ng/ml of BMP4, 50 ng/ml VEGF165, 50 ng/ml Activin A, day 3: 30 ng/ml of BMP4, 50 ng/ml VEGF165 and 20 ng/ml bFGF. Four days post-differentiation, single cells derived by TrypLE™ Express (ThermoFisher Scientific) treatment and strained through 40 μm cell strainers (Greiner Bio-one, Germany) were used for hematopoietic precursor and erythroblast expansion and erythroblast terminal maturation as detailed herein. Hematopoietic and erythroblast differentiation were monitored by flow cytometry, quantitative real-time PCR, immunoblotting and microscopic imaging. Oxygen binding affinity of differentiated erythroblast was determined using a Hemox Analyzer (TCS Scientific Corp, USA).\n(§4) HPSC-MC aggregates were dissociated into single cells by treatment with TrypLE. Express (ThermoFisher Scientific) for 5 minutes at 37° C., passed through 40 μm cell strainer (Greiner Bio-one), centrifuged at 1300 rpm for 3 minutes to pellet cells, and rinsed once with phosphate buffered saline (PBS) before re-suspension in Stemline II medium. Two hundred thousand cells in 100 μl of Stemline II medium were transferred to a 6-well ultra-low attachment plate and cultured with Blast growth medium (BGM) for 2 weeks in static conditions as detailed herein.\n(§5) Hematopoietic precursors were mixed with equal volume of Stemline II medium containing 50 ng/ml of SCF (STEMCELL. Technologies) and 3 U/ml EPO (Peprotech, USA), for an additional 7 days. Subsequently, cells were diluted 10-fold with PBS and pelleted by centrifugation at 3000 rpm for 10 minutes. […]"}, "D12 O-neg hiPSC line": {"test_system": "D12 O-neg hiPSC line", "assay": "CHIR dose: hematopoietic/erythroid differentiation of agitated hPSC-MC aggregates", "experimental": "as §1, §2, §3, §4, §5"}, "[1]": {"test_system": "X13 induced pluripotent stem cells (iPSCs) on microcarriers", "assay": "screening of Wnt pathway activators: mesoderm induction (T-bra, KDR+PDGFRα−) by flow cytometry", "conditions": "at 72 hours, compared to other Wnt pathway modulators", "experimental": "(A) is a column graph showing two different concentrations of seven Wnt pathway activators (BIO, SB-216763, CHIR98014, Inhibitor VIII, Kenpaullone, DRF053 dihydrochloride and Wnt3a). which were selected from literature reviews and screened with CHIR99021 as a control for the disclosed hematopoietic differentiation protocol. The viability of the X13 induced pluripotent stem cells (iPSCs) on microcarriers were tabulated accordingly 24 hours post treatment of the various Wnt pathway modulators. […] (B) is a column graph showing the percentage of mesogerm induction.\nHuman induced pluripotent stem cell-microcarrier (hiPSC-MC) aggregates (1×10^6 cells/ml, or 1e6 cells/nil) were transferred to mesoderm induction medium (cytokines all from Stemcell Technologies) plus Stemline II Hematopoietic Stem Cell Expansion medium (SL2) in either 6-well ultra-low attachment plates (5 ml) under continuous agitation at 75 rpm or 125 ml spinner flasks (50 ml) under continuous agitation at 36 rpm. Daily medium changes as indicated: Day 0: SL2+30 ng/ml BMP4+50 ng/ml VEGF-165+40 ng/ml Activin A+12-15 μM CHIR-99021; Day 1: SL2+30 ng/ml BMP4+50 ng/ml VEGF-165+40 ng/ml Activin A; Day 2: SL2+20 ng/ml BMP4+30 ng/ml VEGF165+5 ng/ml Activin A+10 ng/ml bFGF+20 ng/ml SCF+0.4 ng/ml β-estradiol. Samples were collected on day 1 and day 3 for flow cytometry analysis of T-brachyury (T-Bra) and KDR/PDGFRα cells, respectively."}, "[2]": {"conditions": "15 μM CHIR dose, day 14 post differentiation"}, "[3]": {"conditions": "15 μM CHIR for 24 hours, day 2, flow cytometry"}, "[4]": {"conditions": "15 μM CHIR for 24 hours, day 4, flow cytometry"}, "[5]": {"conditions": "erythroblast expansion medium, up to day 42"}, "[6]": {"conditions": "optimal dose of CHIR-99021, 14 days in methyl cellulose medium"}, "[7]": {"conditions": "optimal dose of CHIR-99021, 14 days in methyl cellulose medium (static)"}, "[8]": {"conditions": "optimal dose of CHIR-99021, day 2"}, "[9]": {"conditions": "optimal dose of CHIR-99021, day 4"}},
  "data": [
    {"compound": "Cc1c[nH]c(-c2cnc(NCCNc3ccc(C#N)cn3)nc2-c2ccc(Cl)cc2Cl)n1", "note": "[CHIR-99021, 6-[[2-[[4-(2,4-Dichlorophenyl)-5-(5-methyl-1H-imidazol-2-yl)-2-pyrimidinyl]amino]ethyl]amino]-3-pyridinecarbonitrile]", "values": [
      {"measurement": "fold-expansion of hematopoietic precursors", "setting": "D11 O-neg hiPSC line; [2]", "value": "3.2±0.33", "unit": "fold"},
      {"measurement": "T-Bra+ cells", "setting": "D11 O-neg hiPSC line; [3]", "value": "33.4±4.10", "unit": "%"},
      {"measurement": "KDR+PDGFRβ- cells", "setting": "D11 O-neg hiPSC line; [4]", "value": "11.74±1.16", "unit": "%"},
      {"measurement": "erythroblast differentiation", "setting": "D11 O-neg hiPSC line; [5]", "value": "failed to differentiate into erythroid cells"},
      {"measurement": "Hematopoietic precursor expansion % CD43", "setting": "D11 O-neg hiPSC line; [6]", "value": 17.4, "unit": "%"},
      {"measurement": "Hematopoietic precursor expansion Fold-expansion", "setting": "D11 O-neg hiPSC line; [7]", "value": 3.2, "unit": "fold"},
      {"measurement": "Mesoderm induction % T-Bra", "setting": "D11 O-neg hiPSC line; [8]", "value": 33.4, "unit": "%"},
      {"measurement": "Mesoderm induction % KDR+ PDGFRα−", "setting": "D11 O-neg hiPSC line; [9]", "value": 11.7, "unit": "%"},
      {"measurement": "fold-expansion of hematopoietic precursors", "setting": "D12 O-neg hiPSC line; [2]", "value": "5.26±1.32", "unit": "fold"},
      {"measurement": "T-Bra+ cells", "setting": "D12 O-neg hiPSC line; [3]", "value": "10.6±2.78", "unit": "%"},
      {"measurement": "KDR+PDGFRβ- cells", "setting": "D12 O-neg hiPSC line; [4]", "value": "31.13±5.17", "unit": "%"},
      {"measurement": "erythroblast differentiation", "setting": "D12 O-neg hiPSC line; [5]", "value": "failed to differentiate into erythroid cells"},
      {"measurement": "Hematopoietic precursor expansion % CD43", "setting": "D12 O-neg hiPSC line; [6]", "value": 22, "unit": "%"},
      {"measurement": "Hematopoietic precursor expansion Fold-expansion", "setting": "D12 O-neg hiPSC line; [7]", "value": 7.9, "unit": "fold"},
      {"measurement": "Mesoderm induction % T-Bra", "setting": "D12 O-neg hiPSC line; [8]", "value": 10.9, "unit": "%"},
      {"measurement": "Mesoderm induction % KDR+ PDGFRα−", "setting": "D12 O-neg hiPSC line; [9]", "value": 20.7, "unit": "%"},
      {"measurement": "KDR+PDGFRα− population", "setting": "[1]", "value": "significantly highest"}
    ]}
  ]
}
